One test relates to PC12 cells. The test can be described thus: EGR-SEAP/PC12 screening assay for neuronal activity. It is filed as cell-based, rat. The note with it: 50 ng/ul; PC12 EGR-SEAP; typically seen. The text has this: Particularly, the following protocol is used to assess neuronal activity in PC12 cell lines. PC12 cells (rat phenochromocytoma cells) are known to proliferate and/or differentiate by activation with a number of mitogens, such as TPA (tetradecanoyl phorbol acetate), NGF (nerve growth factor), and EGF (epidermal growth factor). The EGR1 gene expression is activated during this treatment. Thus, by stably transfecting PC12 cells with a construct containing an EGR promoter linked to SEAP reporter, activation of PC12 cells by CLC can be assessed.
The EGR/SEAP reporter construct can be assembled by the following protocol. The EGR-1 promoter sequence (−633 to +1; Sakamoto, K., et al., Oncogene 6:867-871 (1991)) can be PCR amplified from human genomic DNA using the following primers. The 5′ primer has the sequence: 5′-GCGCTCGAGGGATGACAGCGATAGAACCCCGG-3′ (SEQ ID NO:19) and the 3′ primer has the sequence: 5′-GCGAAGCTTCGCGACTCCCCGGATCCGCCTC-3′ (SEQ ID NO:20).
Using the GAS:SEAP/Neo vector produced in Example 6, EGR1 amplified product can then be inserted into this vector. Linearize the GAS:SEAP/Neo vector using restriction enzymes Xho I and Hind III, removing the GAS/SV40 stuffer. Restrict the EGR1 amplified product with these same enzymes. Ligate the vector and the EGR1 promoter. […]

Test [1] relates to NF-κB promoter element in Jurkat T-cells. The test can be described thus: NF-κB/SEAP screening assay in Jurkat T-cells. The test is classed as cell-based. Conditions: 0.1, 1, 10 ng, typically observed. The method, then: Due to its central role and ability to respond to a range of stimuli, reporter constructs utilizing the NF-κB promoter element are used to screen the supernatants produced in Example 6. Activators or inhibitors of NF-κB would be useful in treating diseases. For example, inhibitors of NF-κB could be used to treat those diseases related to the acute or chronic activation of NF-κB, such as rheumatoid arthritis and others.
PCR amplification is performed using the SV40 promoter template present in the pb-gal:promoter plasmid obtained from Clontech. The resulting PCR fragment is digested with Xho I and Hind III and subcloned into BLSK2-(Stratagene). Sequencing with the T7 and T3 primers confirms the insert contains the following sequence: 5′-CTC
Next, replace the SV40 minimal promoter element present in the pSEAP2-promoter plasmid (Clontech) with this NF-κB/SV40 fragment using Xho I and Hind III.
Particularly, the NF-κB/SV40/SEAP cassette was inserted into pGFP-1 (Clontech), replacing the GFP gene, after restricting pGFP- 1 with Sal I and Not I.
Once NF-κB/SV40/SEAP/Neo vector is created, stable Jurkat T-cells are created and maintained according to the protocol described in Example 9. Similarly, the method for assaying supernatants with these stable Jurkat T-cells is also described in Example 9. […]

In the case of “NGF: growth factor known to activate PC12 cells through EGR”, in the test with PC12 cells, the “induction of SEAP in positive control wells” value was “Over fifty-fold induction”.

As to TNF alpha, the “activation in positive control wells” value in test [1] is 5-10 fold.

The values above are taken from US20030087395A1, “Cardiotrophin-like cytokine” (Human Genome Sciences, Inc., priority 1997, published 2003).
